Patent US5356796A, “Repressor protein and operon for regulating expression of polypeptides and its use in the preparation of 2,2-dialkyglycine decarboxylase of Pseudomonas cepacia” (priority 1992, dated 1994)

Experiments:
[1] = tested on: dialkylglycine decarboxylase gene expression in E. coli DH5α/pKBD6; test: Time course of dialkylglycine decarboxylase induction in E. coli DH5α/pKBD6; format: cell-based, Escherichia coli; conditions: DH5α/pKBD6 in minimal medium with ammonium chloride; amino acid added during growth (10 mM in FIG. 7 legend, 8.0 mM in method)
Method: FIG. 7 depicts induction of dialkylglycine decarboxylase activity in E. coli DH5a/pKBD6 cultures by various amino acids. One-liter cultures containing minimal salts, glucose, NH4 Cl, and tetracycline (12 μg/ml) were supplemented at the indicated time with amino acid (final concentration, 10 mM). Absorbance of the culture was measured at 600 nm in a 1-cm cell ( -- ). Each activity assay contained 60 absorbance units of resuspended bacteria (.largecircle.--.largecircle.)
Radiochemical Dialkylglycine Decarboxylase Assay--Dialkylglycine decarboxylase activity was measured under zero-order conditions essentially as described (Dinwoodie and Boeker, 1979). Assay reactions contained 500 μL of protein solution (100 mM MOPS^1, (MOPS=3-(N-morphalino)propanesulfonic acid), 25 mM KCl, 0.05 mM PLP, (PLP=pyridoxal 5'-phosphate), pH 7.00 or 30 mM Tris, 40 mM KCl, 0.05 mM PLP pH 7.90) plus 0.045 mL of substrate solution (245 mM 2-methylalanine, 62 mM sodium pyruvate, containing 0.25 μCi [1-^14 C]2-methylalanine)- Assays were carried out in stoppered 12×220 mm test tubes containing a folded 10×25 mm piece of filter paper soaked with 24 μL of 2:1 ethanolamine/2-ethoxyethanol- After incubation at room temperature (25° C.) for one or two hours, the reaction was quenched with 200 μL of 50% trichloroacetic acid, ^14 CO2 was collected for one hour, and the filter paper was counted in 10 mL of Beckman Ready Safe cocktail. One unit is defined as the amount of activity required to produce 1 nanomole of CO2 per min. at 25° C.
Time Course of Dialkylglycine Decarboxylase Induction--An 800-mL portion of M9 containing 12 μg/mL tetracycline in a 6-L conical flask was inoculated with DH5α/pKBD6. The flask was shaken at 37° C. and the absorbance at 600 nm was measured periodically. At various times during cell growth aliquots containing 60. AU's (absorbance units) of cells were removed, stored on ice, concentrated by centrifugation, and resuspended in 1.0 mL MOPS buffer. Aliquots of 0.50 mL were assayed for dialkylglycine activity. After the first two samples were taken, an amino acid (2-methylalanine, R,S-isovaline, D-alanine, or L-alanine) was added to a final concentration of 8.0 mM and sampling was continued.

[2] = tested on: dialkylglycine decarboxylase gene (dgdA) expression controlled by the P. cepacia repressor, in E. coli JM109/pGEM7Z14; format: cell-based, Escherichia coli; conditions: 20 mM amino acid in culture medium
Method: Induction Stereochemistry--The induction phenomenon was further investigated by surveying the inducing ability of the separate isovaline stereoisomers and 15 other structurally similar amino acids (Table 3).
In some experiments 20 mM 2-methylalanine or other amino acid or 1 mg/mL IPTG was added to the growth medium. […] Protein concentrations were determined by dye binding (Read and Northcote, 1981).

[3] = target: T1, Pseudomonas cepacia 2,2-dialkylglycine decarboxylase repressor (dgdR gene product, SEQ ID NO: 11) bound to operators O1 and O2 (Burkholderia cepacia, UniProt P16931); test: Gel mobility shift assay of dgdR repressor with the 788 bp DNA fragment in presence of 2-methylalanine; format: binding; conditions: 20 mM 2-methylalanine in gel; 788 bp fragment containing O1 and O2
T1 construct: crude extract or ammonium sulfate fraction; gel shift on dgd operator DNA
T1 sequence (P16931 whole entry, the tested form may be a part): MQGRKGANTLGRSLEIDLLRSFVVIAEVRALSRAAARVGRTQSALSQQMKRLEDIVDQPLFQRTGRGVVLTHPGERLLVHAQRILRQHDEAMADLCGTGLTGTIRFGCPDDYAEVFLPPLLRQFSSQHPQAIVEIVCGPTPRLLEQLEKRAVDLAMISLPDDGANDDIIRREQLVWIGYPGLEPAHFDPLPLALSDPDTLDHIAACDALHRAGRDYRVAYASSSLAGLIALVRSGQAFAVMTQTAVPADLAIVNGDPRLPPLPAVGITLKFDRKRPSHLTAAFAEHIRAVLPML
Method: Repressor Preparation--A 100 ml portion of LB medium containing about 50 μg/ml carbenicillin was inoculated with about a 2 ml overnight culture of JM109/pJKDGDR1 and was grown at about 37° C. to an OD600 of 1. IPTG was added to a final concentration of about 1 mM, the culture was shaken another 4 h, and then was pelleted by centrifugation at 4000 xg at about 4° C. The pellet was resuspended in 5 ml buffer (50 mM TrisHCl pH 7.9, 50 mM KCl), sonicated 3×0.5 min at about 0° C., and centrifuged for about 15 min at about 12,000 xg at about 4° C. Aliquots of the supernatant were used for gel shift assays and SDS-PAGE. Other aliquots were partially purified by selective precipitation with 1.0 M ammonium sulfate. Protein concentration was determined by the dye binding method of Read and Northcote (1981). […]
Gel Shift Assays--A 10 μl assay mixture contained about 50 ng of DNA fragment, 1.0 μg of repressor extract (or 1.0 μg of extract from a JM109 strain containing a dgdA-pBTac1 recombinant), 10 mM TrisHCl pH 7.6, 5 mM sodium acetate, 2.5% glycerol, and 0.005% bovine serum albumin. The mixture was incubated 5 to 20 min at room temperature, about 3 μl of 50% sucrose/0.1% bromophenol blue was added, and the entire sample was analyzed by electrophoresis in a 1 mm 4% polyacrylamide gel containing about […] Tris, 380 mM glycine, 4 mM EDTA, and 2.5% glycerol. […]

[4] = target: Pseudomonas cepacia 2,2-dialkylglycine decarboxylase (Burkholderia cepacia, UniProt P16932); conditions: isovaline isomer as substrate of the decarboxylase; read-out: Michaelis constant; cited from earlier work
Pseudomonas cepacia 2,2-dialkylglycine decarboxylase, sequence (P16932 2-433): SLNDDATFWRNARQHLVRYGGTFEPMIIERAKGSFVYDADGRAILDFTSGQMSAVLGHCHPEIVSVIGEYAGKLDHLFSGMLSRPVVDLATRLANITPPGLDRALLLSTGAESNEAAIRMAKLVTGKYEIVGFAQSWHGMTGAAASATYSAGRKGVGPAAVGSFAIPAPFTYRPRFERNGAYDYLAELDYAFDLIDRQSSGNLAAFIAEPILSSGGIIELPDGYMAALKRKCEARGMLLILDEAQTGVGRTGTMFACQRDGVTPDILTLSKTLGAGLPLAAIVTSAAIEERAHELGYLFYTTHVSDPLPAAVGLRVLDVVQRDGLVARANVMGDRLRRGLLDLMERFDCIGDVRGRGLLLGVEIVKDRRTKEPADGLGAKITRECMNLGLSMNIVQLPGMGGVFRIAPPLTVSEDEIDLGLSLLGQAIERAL

SMILES	induction of decarboxylase specific activity after amino acid addition (in words) [1]	further results
CCC(C)(N)C(=O)O (racemic) [racemic isovaline, isovaline (2-ethylalanine)]	immediate and rapid increase in decarboxylase specific activity	–
NC1(C(=O)O)CCCC1 [1-Aminocyclopentane carboxylic acid]	–	induction of decarboxylase (in words) [2]: induced an intermediate level
CC(C)(N)C(=O)O [2-Methylalanine]	immediate and rapid increase in decarboxylase specific activity	effect on repressor binding to operators (gel shift, in words) [3]: releases O1, but not O2, binding
C[C@@H](N)C(=O)O [D-Alanine]	no decarboxylase production	–
C[C@H](N)C(=O)O [L-Alanine]	no decarboxylase production	–
CC[C@@](C)(N)C(=O)O [R-Isovaline]	–	Km [4]: 1 mM
CC[C@](C)(N)C(=O)O [S-Isovaline]	–	Km [4]: 25 mM
